Test results as given in PMC5067704 (ACS Infectious Diseases, 2016).
In brackets after ≈: the same amount, converted by molar mass. Where two headings read alike, the source gives them in different places.

What was measured:
E. coli tolC mutant = assay: microbe, parasite or virus in culture; type: cell-based, Escherichia coli; details: for MIC: Escherichia coli, read-out: MIC E. coli tolC mutant
[1] = Cytotoxicity assay (resazurin), HepG2; type: cell-based; details: human, HepG2 cells, 20 h incubation, highest concentration 60 μM
E. coli clin isol [2] = assay: MIC determination, E. coli clinical isolate (second column); type: cell-based; details: Escherichia coli, n = 4
E. coli DC2 mutant = assay: microbe, parasite or virus in culture; type: cell-based; details: Escherichia coli, DC2MUTANT, read-out: MIC E. coli DC2 mutant
E. coli lpxC/tolC mutant = assay: microbe, parasite or virus in culture; type: cell-based; details: Escherichia coli, read-out: MIC E. coli lpxC/tolC mutant
E. coli clin isol [3] = assay: MIC determination, E. coli clinical isolate (first column); type: cell-based; details: Escherichia coli, n = 4
E. coli MB4827 = assay: MIC determination, E. coli MB4827; type: cell-based; details: Escherichia coli, n = 4
E. coli ATCC 25922 = assay: MIC determination, E. coli ATCC 25922 (wild type); type: cell-based, Escherichia coli; details: for MIC: Escherichia coli
[4] = target: T1, E. coli dihydrofolate reductase (eDHFR) (Escherichia coli, UniProt P0ABQ4); assay: DHFR enzyme inhibition assay; type: biochemical
T1 construct: host or cells: cell-free (PURExpress in vitro protein synthesis)

S. aureus ATCC 25923 = assay: MIC determination, S. aureus ATCC 25923; type: cell-based; details: Staphylococcus aureus
[5] = Cytotoxicity assay (resazurin), HEK 293; type: cell-based; details: human, HEK293 cells, 20 h incubation, highest concentration 60 μM
E. coli lpxC mutant = assay: microbe, parasite or virus in culture; type: cell-based; details: Escherichia coli, read-out: MIC E. coli lpxC mutant
[6] = tested on: membrane-impaired mutant E. coli (LpxC and DC2); assay: microbe, parasite or virus in culture; details: Escherichia coli, read-out: MIC membrane-impaired mutant E. coli (LpxC and DC2)
E. coli (ATCC 25922) = assay: LC-MS/MS bacterial accumulation assay, wild type E. coli; type: cell-based, Escherichia coli; details: example of the calculation; strain and dose not stated
[7] = ATCC25922, wild type, n = 4, read-out: MIC E. coli ATCC 25922
[8] = ATCC25923, n = 4, read-out: MIC S. aureus ATCC 25923

T1 sequence (P0ABQ4 whole entry): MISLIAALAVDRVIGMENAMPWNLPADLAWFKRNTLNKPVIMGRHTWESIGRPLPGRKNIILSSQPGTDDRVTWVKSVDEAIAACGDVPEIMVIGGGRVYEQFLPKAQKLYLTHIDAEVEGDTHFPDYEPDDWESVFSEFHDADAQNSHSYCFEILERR

Compound | MIC (E. coli tolC mutant) | CC50 at 20 h [1] | MIC (E. coli clin isol [2]) | MIC (E. coli DC2 mutant) | MIC (E. coli lpxC/tolC mutant) | MIC (E. coli clin isol [3]) | MIC (E. coli MB4827) | antimicrobial activity, fold less active than TMP (E. coli ATCC 25922; E. coli strains of Table 1) | MIC (E. coli ATCC 25922; [7]) | IC50 [4] | MIC (S. aureus ATCC 25923; [8]) | CC50 at 20 h [5] | MIC (E. coli lpxC mutant) | MIC [6] | MIC E. coli ΔtolC (E. coli tolC mutant; molar equivalent of the μg/mL value) | measured concentration using LC-MS/MS (lysate) (E. coli (ATCC 25922)) | MIC (E. coli ATCC 25922; ATCC25922, molar equivalent of the μg/mL value, read-out: MIC E. coli ATCC 25922, in μM) | MIC (S. aureus ATCC 25923; ATCC25923, molar equivalent of the μg/mL value, read-out: MIC S. aureus ATCC 25923, in μM)
COc1cc(Cc2cnc(N)nc2N)cc(OC)c1OCCCN=[N+]=[N-] [8a] | 0.25 µg/mL (≈ 0.696 µM) | > 60 µM | 4 µg/mL (≈ 11.1 µM) | 4 µg/mL (≈ 11.1 µM) | 0.25 µg/mL (≈ 0.696 µM) | 8 µg/mL (≈ 22.3 µM) | 8 µg/mL (≈ 22.3 µM) | 8–16 fold | 8 µg/mL | 0.066 µM | 4 µg/mL | > 60 µM |  |  |  |  |  | 
COc1cc(Cc2cnc(N)nc2N)cc(OC)c1OCCCCN=[N+]=[N-] [8b] | 0.125 µg/mL (≈ 0.335 µM) | > 60 µM | 16 µg/mL (≈ 42.8 µM) | 8 µg/mL (≈ 21.4 µM) | 0.25 µg/mL (≈ 0.669 µM) | 8 µg/mL (≈ 21.4 µM) | 16 µg/mL (≈ 42.8 µM) |  | 32 µg/mL | 0.097 µM | 4 µg/mL | > 60 µM |  |  |  |  |  | 
COc1cc(Cc2cnc(N)nc2N)cc(OC)c1OCCCCCN=[N+]=[N-] [8c] | 0.125 µg/mL (≈ 0.323 µM) | > 60 µM | 16 µg/mL (≈ 41.3 µM) | 8 µg/mL (≈ 20.6 µM) | 0.25 µg/mL (≈ 0.645 µM) | 16 µg/mL (≈ 41.3 µM) | 32 µg/mL (≈ 82.6 µM) |  | 32 µg/mL | 0.14 µM | 4 µg/mL | > 60 µM | 8 µg/mL (≈ 20.6 µM) |  |  |  |  | 
COc1cc(Cc2cnc(N)nc2N)cc(OC)c1OCCCn1cc(CNc2ccc([N+](=O)[O-])c3nonc23)nn1 [12a] | 2 µg/mL (≈ 3.46 µM) | > 60 µM | > 64 µg/mL | > 64 µg/mL | 1 µg/mL (≈ 1.73 µM) | > 64 µg/mL | > 64 µg/mL |  | > 64 µg/mL | 0.254 µM | 64 µg/mL | > 60 µM | > 64 µg/mL |  |  |  |  | 
COc1cc(Cc2cnc(N)nc2N)cc(OC)c1OCCCn1cc(CNC(=O)Cc2cc(=O)oc3cc(N(C)C)ccc23)nn1 [13a] | 8 µg/mL (≈ 12.4 µM) | > 60 µM | > 64 µg/mL | > 64 µg/mL | 8 µg/mL (≈ 12.4 µM) | > 64 µg/mL | > 64 µg/mL |  | > 64 µg/mL | 0.083 µM | > 64 µg/mL | > 60 µM | > 64 µg/mL |  |  |  |  | 
COc1cc(Cc2cnc(N)nc2N)cc(OC)c1OC [TMP, trimethoprim, reference compound] | 0.125 µg/mL (≈ 0.431 µM) |  | 0.5 µg/mL (≈ 1.72 µM) | 0.25 µg/mL (≈ 0.861 µM) | 0.125 µg/mL (≈ 0.431 µM) | 0.5 µg/mL (≈ 1.72 µM) | 1 µg/mL (≈ 3.44 µM) |  | 0.5 µg/mL |  | 1 µg/mL |  |  | 0.25 to 0.5 µg/mL (≈ 0.861 to 1.72 µM) |  |  |  | 
COc1cc(Cc2cnc(N)nc2N)cc(OC)c1OCCCCn1cc(CNc2ccc([N+](=O)[O-])c3nonc23)nn1 [compound 12b] | 0.25 µg/mL (≈ 0.423 µM) | > 60 µM | > 64 µg/mL | > 64 µg/mL | 0.5 µg/mL (≈ 0.845 µM) | > 64 µg/mL | > 64 µg/mL |  |  | 0.148 µM |  | > 60 µM | > 64 µg/mL |  | 0.37 µM | 7.122 µM | 24 µM | > 94 µM
COc1cc(Cc2cnc(N)nc2N)cc(OC)c1OCCCCCn1cc(CNc2ccc([N+](=O)[O-])c3nonc23)nn1 [compound 12c] | 0.5 µg/mL (≈ 0.826 µM) | > 60 µM | > 64 µg/mL | > 64 µg/mL | 0.5 µg/mL (≈ 0.826 µM) | > 64 µg/mL | > 64 µg/mL |  | > 64 µg/mL | 0.208 µM | 8 µg/mL | 46 µM | > 64 µg/mL |  |  |  |  | 
COc1cc(Cc2cnc(N)nc2N)cc(OC)c1OCCCCn1cc(CNC(=O)Cc2cc(=O)oc3cc(N(C)C)ccc23)nn1 [compound 13b] | 2 µg/mL (≈ 3.04 µM) | > 60 µM | > 64 µg/mL | > 64 µg/mL | 2 µg/mL (≈ 3.04 µM) | > 64 µg/mL | > 64 µg/mL |  | > 64 µg/mL | 0.162 µM | > 64 µg/mL | > 60 µM | > 64 µg/mL |  |  |  |  | 
COc1cc(Cc2cnc(N)nc2N)cc(OC)c1OCCCCCn1cc(CNC(=O)Cc2cc(=O)oc3cc(N(C)C)ccc23)nn1 [compound 13c] | 1 µg/mL (≈ 1.49 µM) | > 60 µM | > 64 µg/mL | > 64 µg/mL | 1 µg/mL (≈ 1.49 µM) | > 64 µg/mL | > 64 µg/mL |  | > 64 µg/mL | 0.668 µM | > 64 µg/mL | > 60 µM | > 64 µg/mL |  |  |  |  | 
COc1cc(Cc2cnc(N)nc2N)cc(OC)c1OCCCn1cc(CNS(=O)(=O)c2cccc3c(N(C)C)cccc23)nn1 [compound 14a] | 0.5 µg/mL (≈ 0.772 µM) | > 60 µM | > 64 µg/mL | > 64 µg/mL | 0.5 µg/mL (≈ 0.772 µM) | > 64 µg/mL | > 64 µg/mL |  | > 64 µg/mL | 0.162 µM | > 64 µg/mL | 59 µM | > 64 µg/mL |  |  |  |  | 
COc1cc(Cc2cnc(N)nc2N)cc(OC)c1OCCCCn1cc(CNS(=O)(=O)c2cccc3c(N(C)C)cccc23)nn1 [compound 14b] | 0.5 µg/mL (≈ 0.756 µM) | > 60 µM | > 64 µg/mL | > 64 µg/mL | 1 µg/mL (≈ 1.51 µM) | > 64 µg/mL | > 64 µg/mL |  | > 64 µg/mL | 0.226 µM | 64 µg/mL | 59 µM | > 64 µg/mL |  |  |  |  | 
COc1cc(Cc2cnc(N)nc2N)cc(OC)c1OCCCCCn1cc(CNS(=O)(=O)c2cccc3c(N(C)C)cccc23)nn1 [compound 14c] | 0.25 µg/mL (≈ 0.37 µM) | 51 µM | > 64 µg/mL | > 64 µg/mL | 0.25 µg/mL (≈ 0.37 µM) | > 64 µg/mL | > 64 µg/mL |  | > 64 µg/mL | 0.509 µM | 32 µg/mL | 32 µM | > 64 µg/mL |  |  |  |  | 
